# Legend:
# [1] = biological target: human D2(long) (Homo sapiens, UniProt P14416); test: Competitive radioligand binding at D2 dopamine receptor with 125I-IABN; details: for D3:D2: Ki for D3 receptors/Ki for D2 receptors; for D4:D2: Ki for D4 receptors/Ki for D2 receptors
# [2] = biological target: human D3 (Homo sapiens, UniProt P35462); test: Competitive radioligand binding at D3 dopamine receptor with 125I-IABN; details: relative to aripiprazole
# [3] = biological target: T1, human D4 (Homo sapiens, UniProt P21917); format: binding; details: human D4 expressed in HEK cells, [125I]ABN radioligand; mean ± SEM, at least three experiments
# T1 sequence (P21917 1-419): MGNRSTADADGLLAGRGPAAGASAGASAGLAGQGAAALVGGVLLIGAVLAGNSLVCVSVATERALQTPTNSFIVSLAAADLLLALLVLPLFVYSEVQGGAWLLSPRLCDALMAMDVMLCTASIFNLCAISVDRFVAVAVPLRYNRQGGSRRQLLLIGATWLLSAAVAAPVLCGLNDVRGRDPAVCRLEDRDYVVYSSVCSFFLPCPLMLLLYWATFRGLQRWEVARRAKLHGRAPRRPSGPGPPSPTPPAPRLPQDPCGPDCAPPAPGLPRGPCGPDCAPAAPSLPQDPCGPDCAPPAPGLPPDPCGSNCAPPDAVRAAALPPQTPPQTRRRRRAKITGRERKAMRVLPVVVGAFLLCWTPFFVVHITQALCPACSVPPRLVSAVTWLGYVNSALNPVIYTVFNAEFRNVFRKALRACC
# [4] = biological target: human D2 receptors (Homo sapiens, UniProt P14416); test: Whole cell forskolin-dependent adenylyl cyclase inhibition assay, D2L HEK cells; format: cell-based
# human D2 receptors, sequence (P14416 whole entry): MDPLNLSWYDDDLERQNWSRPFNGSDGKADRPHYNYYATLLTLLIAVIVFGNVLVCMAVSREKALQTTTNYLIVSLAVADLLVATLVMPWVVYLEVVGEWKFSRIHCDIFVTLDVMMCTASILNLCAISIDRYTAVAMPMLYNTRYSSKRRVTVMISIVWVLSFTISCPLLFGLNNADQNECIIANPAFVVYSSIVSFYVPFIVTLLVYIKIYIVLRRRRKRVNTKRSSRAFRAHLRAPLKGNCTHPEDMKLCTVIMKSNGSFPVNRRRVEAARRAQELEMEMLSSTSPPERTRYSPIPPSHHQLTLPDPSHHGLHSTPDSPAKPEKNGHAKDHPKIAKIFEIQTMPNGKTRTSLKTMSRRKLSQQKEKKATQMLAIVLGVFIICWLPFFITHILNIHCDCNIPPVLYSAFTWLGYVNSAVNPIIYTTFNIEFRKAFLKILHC
# human D2(long), sequence (P14416 whole entry): as above
# human D3, sequence (P35462 whole entry): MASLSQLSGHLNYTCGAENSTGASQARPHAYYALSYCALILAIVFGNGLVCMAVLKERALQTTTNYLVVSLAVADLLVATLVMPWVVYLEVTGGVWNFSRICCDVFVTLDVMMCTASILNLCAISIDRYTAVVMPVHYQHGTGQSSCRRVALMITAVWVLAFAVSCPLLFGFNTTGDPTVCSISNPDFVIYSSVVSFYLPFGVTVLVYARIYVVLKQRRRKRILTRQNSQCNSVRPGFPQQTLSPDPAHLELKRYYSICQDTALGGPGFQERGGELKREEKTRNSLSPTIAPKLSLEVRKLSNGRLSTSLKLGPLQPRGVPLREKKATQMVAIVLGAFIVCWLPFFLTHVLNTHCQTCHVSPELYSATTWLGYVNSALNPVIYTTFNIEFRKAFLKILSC
SMILES,D3:D2 [1],D4:D2 [1],decrease in affinity at D3 receptors [2] [fold],Ki D4 [3],intrinsic efficacy greater at D2 receptors compared to D3 receptors [4],increase in affinity at D2 receptors ([1]; relative to aripiprazole) [fold]
"O=C(O)C(=O)O.O=C1CCc2ccc(OCCCCN3CCC(n4c(=O)[nH]c5ccccc54)CC3)cc2N1 [Compound 3, 7-(4-(4-(2-Oxo-2,3-dihydro-1H-benzo[d]imidazol-1-yl)-piperidin-1-yl)butoxy)-3,4-dihydroquinolin-2(1H)-one oxalate]",6.1,7.1,,,,
"O=C(O)C(=O)O.O=C1CCc2ccc(OCCCCN3CCN(c4ccccc4OCCF)CC3)cc2N1 [Compound 7, 7-(4-(4-(2-(2-Fluoroethoxy)phenyl)piperazin-1-yl)butoxy)-3,4-dihydroquinolin-2(1H)-one oxalate]",,,2,low affinity,16–75%,12
"CN1CN(c2ccccc2)C2(CCN(CCCCOc3ccc4c(c3)NC(=O)CC4)CC2)C1=O.O=C(O)C(=O)O [Compound 5, 7-(4-(3Methyl-4-oxo-1-phenyl-1,3,8-triazaspiro[4.5]decan-8-yl)butoxy)-3,4-dihydro-quinolin-2(1H)-one oxalate]",0.7,1.4,,,,
"O=C(O)C(=O)O.O=C1CCc2ccc(OCCCCN3CCC(n4c(=O)[nH]c5cc(Cl)ccc54)CC3)cc2N1 [Compound 4, 7-(4-(4-(5-Chloro-2-oxo-2,3-dihydro-1H-benzo[d]imidazol-1-yl)piperidin-1-yl)butoxy)-3,4-dihydroquinolin-2(1H)-one oxalate]",1.9,4.4,,,,

# Reference: publication PMC3118479 (Bioorganic & medicinal chemistry, 2011)
